Bounds are passed on as bounds.

The test addresses T1, hCCR4 (Homo sapiens, UniProt P51679).
T1 sequence (P51679 1-360): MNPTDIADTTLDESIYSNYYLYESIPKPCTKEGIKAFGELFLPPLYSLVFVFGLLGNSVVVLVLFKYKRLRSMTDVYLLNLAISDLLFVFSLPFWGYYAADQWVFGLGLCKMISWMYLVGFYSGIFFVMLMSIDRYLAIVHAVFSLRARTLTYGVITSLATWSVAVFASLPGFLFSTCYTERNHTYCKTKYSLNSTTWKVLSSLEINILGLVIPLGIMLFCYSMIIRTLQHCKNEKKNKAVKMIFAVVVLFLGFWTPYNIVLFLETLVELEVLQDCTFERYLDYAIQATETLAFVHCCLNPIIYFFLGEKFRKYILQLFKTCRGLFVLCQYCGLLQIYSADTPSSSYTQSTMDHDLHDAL
Briefly: Calcium flux assay. Format: cell-based. As to conditions: Chem5-hCCR4 cells, CCL22 at EC80 of 1.5 nM, FLIPR Calcium 6 dye; read-out: Potency (IC50). The procedure: Calcium Flux Assay. Compounds were evaluated in a calcium flux assay substantially performed as follows. Chem5-hCCR4 cells (EMD Millipore, Hayward, Calif.; HTS009C) were cultured under standard conditions and frozen in aliquots of 10×10^6 cells/mL. The day prior to compound testing, a vial was rapidly thawed and pipetted into 20 mL media (DMEM+10% FBS+1% Pen-Strep+1% L-glutamine). Cells were harvested by centrifugation and re-suspended in fresh culture medium. 25 μL of cell suspension was seeded into 384-well plates (Corning, Tewksbury, Mass.; CellBind with black wall/clear bottom). The plates were centrifuged at 300 g for 10 seconds and incubated overnight at 37° C. and 5% CO2. The day of compound testing, media was removed from the plates and 25 μL serum free media was added to each well. Plates were returned to the incubator for 2 h. 25 μL assay buffer (Hank's balanced salt solution+20 mM HEPES pH 7.4) containing FLIPR Calcium 6 dye (Molecular Devices, Sunnyvale, Calif.; # R8191) and probenecid (2.5 mM) was added to each well and incubated at 37° C. and 5% CO2 for 2 h. Compounds in DMSO were added to the plates using an HP D300e digital dispenser, and all wells were normalized to contain 0.25 μL (0.5%) DMSO. Plates were incubated for 1 hour at 37° C. and 5% CO2. CCL22 (Peprotech; Rockyhill, N.J.) was diluted in assay buffer containing 0.1% BSA to 7.5 nM (corresponding to 5×EC80 of 1.5 nM).
Assay plates and working solution of CCL22 were transferred to the FlexStation plate reader (Molecular Devices) at 37° C. for 5 min of equilibration. Fluorescence recordings at 485 excitation/525 emission were performed at 2.5 second intervals. At t=16 seconds, 12.5 μL of CCL22 solution was added to each well and reads continued for 30 seconds at 2.5 second intervals. The minimum fluorescence (Fmin) was calculated by averaging the reads prior to ligand addition and the change in fluorescence (ΔF) was calculated by subtracting the Fmin from the average of the reads following ligand addition. The response ΔF/Fmin was plotted as a function of the compound concentration and the IC50 values were determined by non-linear regression analysis using a 4-parameter fit in either PRISM software (GraphPad; La Jolla, Calif.) or Dotmatics Browser.
In general terms: Calcium assays in cells follow changes in intracellular calcium, usually with a dye or a luminescent sensor.

`C[C@H](c1ccc(Cl)cc1Cl)n1nc(C#N)c2ncc(N3CC(C4CCCN(Cc5cc[nH]n5)C4)C3)nc21` (mixture of isomers) [Example 59, 6-(3-((S)-1-((1H-pyrazol-3-yl)methyl)piperidin-3-yl)azetidin-1-yl)-1-((R)-1-(2,4-dichlorophenyl)ethyl)-1H-pyrazolo[3,4-b]pyrazine-3-carbonitrile and 6-(3-((R)-1-((1H-pyrazol-3-yl)methyl)piperidin-3-yl)azetidin-1-yl)-1-((R)-1-(2,4-dichlorophenyl)ethyl)-1H-pyrazolo[3,4-b]pyrazine-3-carbonitrile]: the IC50 (commonly the concentration at which inhibition is half-maximal) is below 100 nM.
To `C[C@H](c1ccc(Cl)cc1Cl)n1nc(C#N)c2ncc(N3CC(C4CCCN(CCCC(C)(C)O)C4)C3)nc21` (mixture of isomers) [Example 56, 1-((R)-1-(2,4-dichlorophenyl)ethyl)-6-(3-((S)-1-(4-hydroxy-4-methylpentyl)piperidin-3-yl)azetidin-1-yl)-1H-pyrazolo[3,4-b]pyrazine-3-carbonitrile and 1-((R)-1-(2,4-dichlorophenyl)ethyl)-6-(3-((R)-1-(4-hydroxy-4-methylpentyl)piperidin-3-yl)azetidin-1-yl)-1H-pyrazolo[3,4-b]pyrazine-3-carbonitrile] belongs below 100 nM; to `CCCN1CCC[C@@H](C2CN(c3cnc4c(C#N)nn([C@H](C)c5ccc(Cl)cc5Cl)c4n3)C2)C1` (single isomer, unassigned) [Example 72], 100 to 500 nM; to `C[C@H](c1ccc(Cl)cc1Cl)n1nc(C#N)c2ncc(N3CC(C4CCCN(CCO)C4)C3)nc21` (single isomer, unassigned) [Example 35], below 100 nM.
To `C[C@H](c1ccc(Cl)cc1Cl)n1nc(C#N)c2ncc(N3CC(C4CCCN(C5CCS(=O)(=O)CC5)C4)C3)nc21` (mixture of isomers) [Example 61, 1-((R)-1-(2,4-dichlorophenyl)ethyl)-6-(3-((R)-1-(1,1-dioxidotetrahydro-2H-thiopyran-4-yl)piperidin-3-yl)azetidin-1-yl)-1H-pyrazolo[3,4-b]pyrazine-3-carbonitrile and 1-((R)-1-(2,4-dichlorophenyl)ethyl)-6-(3-((S)-1-(1,1-dioxidotetrahydro-2H-thiopyran-4-yl)piperidin-3-yl)azetidin-1-yl)-1H-pyrazolo[3,4-b]pyrazine-3-carbonitrile] belongs below 100 nM; to `Cc1nn([C@H](C)c2ccc(Cl)cc2Cl)c2nc(N3CC(C4CCCN(CCS(N)(=O)=O)C4)C3)cnc12` (mixture of isomers) [Example 4, 2-((R)-3-(1-(1-((R)-1-(2,4-dichlorophenyl)ethyl)-3-methyl-1H-pyrazolo[3,4-b]pyrazin-6-yl)azetidin-3-yl)piperidin-1-yl)ethane-1-sulfonamide and 2-((S)-3-(1-(1-((R)-1-(2,4-dichlorophenyl)ethyl)-3-methyl-1H-pyrazolo[3,4-b]pyrazin-6-yl)azetidin-3-yl)piperidin-1-yl)ethane-1-sulfonamide], 100 to 500 nM; to `Cc1nn([C@H](C)c2ccc(Cl)cc2Cl)c2nc(N3CC([C@@H]4CCCN(CCC(=O)O)C4)C3)cnc12` (single isomer, unassigned) [Example 9], above 500 nM.
As for `C[C@H](c1ccc(Cl)cc1Cl)n1nc(C#N)c2ncc(N3CC([C@H]4CCCN(CCCC(=O)O)C4)C3)nc21` (single isomer, unassigned) [Example 18], the figure is below 100 nM; as for `C[C@H](c1ccc(Cl)cc1F)n1nc(C#N)c2ncc(N3CC([C@H]4CCCN(CCO)C4)C3)nc21` [Example 55, 1-((R)-1-(4-chloro-2-fluorophenyl)ethyl)-6-(3-((R)-1-(2-hydroxyethyl)piperidin-3-yl)azetidin-1-yl)-1H-pyrazolo[3,4-b]pyrazine-3-carbonitrile], below 100 nM; as for `C[C@H](c1ccc(Cl)cc1Cl)n1nc(C#N)c2ncc(N3CC([C@H]4CCN(CCCO)C4)C3)nc21` (single isomer, unassigned) [Example 95], below 100 nM.
On to `C[C@H](c1ccc(Cl)cc1Cl)n1nc(C(F)(F)F)c2ncc(N3CC([C@@H]4CCCN(CCO)C4)C3)nc21` (single isomer, unassigned) [Example 44], for which the IC50 lay in the range of 100 to 500 nM.
To `CC(C)C(=O)NCCN1CCCC(C2CN(c3cnc4c(C(F)(F)F)nn([C@H](C)c5ccc(Cl)cc5Cl)c4n3)C2)C1` (mixture of isomers) [Example 48, N-(2-((R)-3-(1-(1-((R)-1-(2,4-Dichlorophenyl)ethyl)-3-(trifluoromethyl)-1H-pyrazolo[3,4-b]pyrazin-6-yl)azetidin-3-yl)piperidin-1-yl)ethyl)isobutyramide and N-(2-((S)-3-(1-(1-((R)-1-(2,4-dichlorophenyl)ethyl)-3-(trifluoromethyl)-1H-pyrazolo[3,4-b]pyrazin-6-yl)azetidin-3-yl)piperidin-1-yl)ethyl)isobutyramide] belongs below 100 nM; to `C[C@H](c1ccc(Cl)cc1Cl)n1nc(C(F)(F)F)c2ncc(N3CC(C4CCCN(CCCS(C)(=O)=O)C4)C3)nc21` (mixture of isomers) [Example 50, 1-((R)-1-(2,4-Dichlorophenyl)ethyl)-6-(3-((R)-1-(3-(methylsulfonyl)propyl)piperidin-3-yl)azetidin-1-yl)-3-(trifluoromethyl)-1H-pyrazolo[3,4-b]pyrazine and 1-((R)-1-(2,4-dichlorophenyl)ethyl)-6-(3-((S)-1-(3-(methylsulfonyl)propyl)piperidin-3-yl)azetidin-1-yl)-3-(trifluoromethyl)-1H-pyrazolo[3,4-b]pyrazine], below 100 nM.
As for `CC(=O)NCCN1CCC[C@@H](C2CN(c3cnc4c(C)nn([C@H](C)c5ccc(Cl)cc5Cl)c4n3)C2)C1` (single isomer, unassigned) [Example 101], the figure is below 100 nM; as for `CC(C)N1CCC[C@H](C2CN(c3cnc4c(C#N)nn([C@H](C)c5ccc(Cl)cc5Cl)c4n3)C2)C1` (single isomer, unassigned) [Example 77], below 100 nM.
Take `C[C@H](c1ccc(Cl)cc1Cl)n1nc(C#N)c2ncc(N3CC([C@@H]4CCCN(CCCC(=O)O)C4)C3)nc21` (single isomer, unassigned) [Example 19]: the IC50 was below 100 nM.
To `C[C@H](c1ccc(Cl)cc1Cl)n1nc(C#N)c2ncc(N3CC(C4CCCN(CCS(=O)(=O)N5CCOCC5)C4)C3)nc21` (mixture of isomers) [Example 58, 1-((R)-1-(2,4-dichlorophenyl)ethyl)-6-(3-((S)-1-(2-(morpholinosulfonyl)ethyl)piperidin-3-yl)azetidin-1-yl)-1H-pyrazolo[3,4-b]pyrazine-3-carbonitrile and 1-((R)-1-(2,4-dichlorophenyl)ethyl)-6-(3-((R)-1-(2-(morpholinosulfonyl)ethyl)piperidin-3-yl)azetidin-1-yl)-1H-pyrazolo[3,4-b]pyrazine-3-carbonitrile] belongs 100 to 500 nM; to `C[C@H](c1ccc(Cl)cc1Cl)n1nc(C#N)c2ncc(N3CC([C@H]4CCCN(CCCS(N)(=O)=O)C4)C3)nc21` (single isomer, unassigned) [Example 107], below 100 nM; to `C[C@H](c1ccc(Cl)cc1Cl)n1nc(C(N)=O)c2ncc(N3CC([C@H]4CCCN(CCCC(=O)O)C4)C3)nc21` (single isomer, unassigned) [Example 33], below 100 nM.
Consider `CC(C)C(=O)NCCN1CCC[C@H](C2CN(c3cnc4c(C(F)(F)F)nn([C@H](C)c5ccc(Cl)cc5Cl)c4n3)C2)C1` (single isomer, unassigned) [Example 89], for which the IC50 is below 100 nM.
As for `C[C@H](c1ccc(Cl)cc1Cl)n1nc(C(F)(F)F)c2ncc(N3CC([C@H]4CCCN(C[C@@H](C)O)C4)C3)nc21` [Example 103, (R)-1-((R)-3-(1-(1-((R)-1-(2,4-dichlorophenyl)ethyl)-3-(trifluoromethyl)-1H-pyrazolo[3,4-b]pyrazin-6-yl)azetidin-3-yl)piperidin-1-yl)propan-2-ol], the figure is below 100 nM.

(Values after US10604526B2, “Chemokine receptor modulators and uses thereof” (RAPT THERAPEUTICS, INC., priority 2016, dated 2020).)
